Where a name gives a salt, the structure may show the parent alone. Read-outs that look alike come from different tables or passages of the source.
Columns and labels:
KAPPA opiate receptor = target: T1, KAPPA opiate receptor (Cavia porcellus, UniProt P41144); test: opiate receptors binding, KAPPA (3H-Ethyl Ketocyclazocine, guinea pig brain homogenate)
T1 construct: fresh guinea pig brain homogenate; from tissue; host or cells: guinea pig whole brain without cerebellum, fresh homogenate
Experimental: Radio receptor binding to μ and K sites is performed on fresh guinea pig brain homogenate prepared according to Kosterlitz. (1981).
(§1) Whole brain without cerebellum is homogenized in 50 mM, Tris-buffer (pH 7.4 at 0° C.) and centrifuged at 49,000×g×10 min.
The pellet is then resuspended in the same buffer, incubated at 37° C. for 45 min. and centrifuged again. 1.9ml of the final homogenate (1:100 in Tris-pH 7.4, 0° C.) is used for the binding assay. Binding to […] sites (Magnan J., 1982) 1 3H [D-Ala2, MePhe4, Gly-o15]Enkephalin (3H-DAGO), an
is determined in the presence of 10-6M Naloxone. 1 Binding to K sites (Magnan J., 1982)
The binding to the K-sites is performed using 3H-Ethyl Ketocyclazocine, a non-selective benzomorphan compound which binds to μ, δ and K-sites, in the presence of 100nM of unlabelled DAGO and 100nM of the enkephalin analogue [DAla^2 -DLeu^5 ]Enkephalin (DADLE), to prevent μ and δ binding respectively.
Final homogenate with solutions of the cold ligand and of the labelled ligand is incubated for 40 min. at 25° C., filtered through Whatman GF/C glass filter discs and washed.
The radioactivity bound to the filters is counted by liquid scintillation spectrophotometry.
The non-specific binding is determined in the presence of 500nM of the benzomorphan non-selective compound Mr 2266.
The equilibrium dissociation constant (KD) and the maximum binding capacity (Bmax) are determined from the analysis of saturation curves, while the inhibition constant (Ki) is determined from the analysis of competition experiments (Hill 1910; Scatchard 1949; Cheng and Prusoff 1973; Gillan et al. 1980).

mice [1] = test: p-phenylquinone-induced abdominal writhing test in mice; format: in vivo, mouse (male Charles River, Swiss Strain); conditions: Mus musculus, sc, 20 min; subcutaneous; calculated as the free base; 20 min pretreatment, p-phenylquinone 2 mg/Kg i.p.
Experimental: (A) P-phenylquinone-induced abdominal writhing test in mice
The methodology employed is based on that described by Sigmund et al, Proc. Soc. Exptl. Biol. 95, 729/1957, modified by Milne and Twomey, Agents and Actions, 10, 31/1980.
Male Charles River mice (Swiss Strain), 25-36g body weight, were used. Animals were allowed food and water ad libitum and were randomized into groups of 10 prior to experimentation. Test compounds were dissolved in either distilled water or distilled water plus 0.1 M AMS, and administered by the subcutaneous route in a final volume of 10 ml/Kg. Control animals received 10 ml/Kg of the appropriate vehicle alone. Following a pretreatment period of 20 min., mice were injected intraperitoneally with p-phenylquinone, 2 mg/Kg at 37° C. in a final volume of […]. […] During this period the number of abdominal writhing responses per animal were recorded where writhing consists of an intermittent contraction of the abdomen associated with hind leg extension.
The degree of antinociceptive protection afforded by the test compound was determined as the mean number of writhing responses observed in the treated group (T) expressed as a percentage of the mean number of writhing responses in the control group (C) according to the following formula:
[1-(T/C]×100%=% graded protection

MU opiate receptor = target: T2, MU opiate receptor (Cavia porcellus, UniProt A0ACM8Q262); test: opiate receptors binding, MU (3H-DAGO, guinea pig brain homogenate)
T2 construct: 3H-DAGO displacement
Experimental: Radio receptor binding to μ and K sites is performed on fresh guinea pig brain homogenate prepared according to Kosterlitz.
as §1
The pellet is then resuspended in the same buffer, incubated at 37° C. for 45 min. and centrifuged again. 1.9ml of the final homogenate (1:100 in Tris-pH 7.4, 0° C.) is used for the binding assay.
The filters are then dryed, solubilized in Filtercount and the radioactivity monitored. Non specific binding
is determined in the presence of 10-6M Naloxone.

mice [2] = test: tail-flick test in mice; format: in vivo, mouse (male Charles River, Swiss Strain); conditions: Mus musculus, sc, 0.5 h, subcutaneous; calculated as the free base; 30 min pretreatment
Experimental: (B) Tail-flick test in mice
The methodology employed is based on that described by D'Amour and Smith, J. Pharmacol. Exp. Ther. 72, 74/1941.
Male Charles River mice (Swiss Strain), 22-34g body weight were used. Animals were allowed food and water ad libitum and were randomized into groups of 10 prior to experimentation.
Test compounds were dissolved in either distilled water or distilled water plus 0.1 M AMS and administered by the subcutaneous route in a final volume of 10 ml/Kg. Control animals received 10 ml/kg of the appropriate vehicle alone. Following a pretreatment period of 30 min., the mice were again placed under the heat source and the reaction tine re-determined.
Percentage quantal protection was determined as the number of mice in which the reaction time was doubled compared to pretreatment values, expressed as a percentage of the total number of mice in the group.

[3] = fresh guinea pig brain homogenate, 3H-Ethyl Ketocyclazocine with 100nM DAGO and 100nM DADLE, 25° C., 40 min, read-out: OPIATE RECEPTORS BINDING KAPPA Ki
[4] = read-out: OPIATE RECEPTORS BINDING MU Ki, fresh guinea pig brain homogenate, 25° C., 40 min
[5] = fresh guinea pig brain homogenate, 25° C., 40 min, read-out: OPIATE RECEPTORS BINDING MU Ki

T2 sequence (A0ACM8Q262 1-400): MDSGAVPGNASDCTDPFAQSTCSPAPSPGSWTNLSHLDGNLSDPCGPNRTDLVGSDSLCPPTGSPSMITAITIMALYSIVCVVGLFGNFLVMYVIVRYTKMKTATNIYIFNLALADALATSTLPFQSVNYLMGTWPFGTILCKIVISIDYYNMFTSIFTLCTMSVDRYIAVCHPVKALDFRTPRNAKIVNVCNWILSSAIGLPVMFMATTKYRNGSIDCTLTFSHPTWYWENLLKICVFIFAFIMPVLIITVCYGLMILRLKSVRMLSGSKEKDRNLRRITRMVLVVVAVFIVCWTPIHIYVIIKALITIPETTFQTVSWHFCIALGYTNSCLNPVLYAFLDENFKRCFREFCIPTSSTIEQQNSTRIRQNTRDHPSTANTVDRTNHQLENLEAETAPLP
T1 sequence (P41144 whole entry): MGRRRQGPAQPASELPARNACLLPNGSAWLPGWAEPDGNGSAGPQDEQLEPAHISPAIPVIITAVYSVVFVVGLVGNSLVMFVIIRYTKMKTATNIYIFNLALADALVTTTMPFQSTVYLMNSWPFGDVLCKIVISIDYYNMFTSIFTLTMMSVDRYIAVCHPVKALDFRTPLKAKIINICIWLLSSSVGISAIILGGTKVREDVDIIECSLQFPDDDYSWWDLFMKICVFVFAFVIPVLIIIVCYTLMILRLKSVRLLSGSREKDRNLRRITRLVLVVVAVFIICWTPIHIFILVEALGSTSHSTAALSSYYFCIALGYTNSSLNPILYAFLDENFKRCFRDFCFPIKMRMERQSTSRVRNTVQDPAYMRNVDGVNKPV

Row | SMILES | Ki (KAPPA opiate receptor; [3]) | ED50 (mice [1]) | Ki (MU opiate receptor; [4]) | ED50 (mice [2]) | Ki (KAPPA opiate receptor) | Ki (MU opiate receptor; [5])
1 | C[C@@H]1CN(C(=O)Cc2ccc(Cl)c(Cl)c2)[C@@H](CN2CCCC2)c2ccccc21 (relative stereo) [Example 3, 1-(pyrrolidin-1-yl)methyl-2-(3,4-dichlorophenyl)acetyl-4-methyl-1,2,3,4-tetrahydroisoquinoline hydrochloride. Diastereoisomer TRANS] | 4.79 nM | 0.036 mg/kg | 122 nM | 0.046 mg/kg |  | 
2 | COc1cccc2c1CCN(C(=O)Cc1ccc(Cl)c(Cl)c1)C2CN1CCCC1 (stereo not drawn) [Example 6, 1-(pyrrolidin-1-Yl)methyl-2-(3,4-dichlorophenyl)acetyl-5-methoxy-1,2,3,4-tetrahydroisoquinoline] |  | 0.047 mg/kg |  | 0.054 mg/kg | 4.01 nM | 277 nM
3 | O=C(Cc1ccc(Cl)c(Cl)c1)N1CCc2cc(O)ccc2C1CN1CCCC1 (stereo not drawn) [Example 16, 1-(pyrrolidin-1-yl)methyl-2-(3,4-dichlorophenyl)acetyl-6-hydroxy-1,2,3,4-tetrahydroisoquinoline.] |  |  |  | 0.24 mg/kg | 1.54 nM | 102 nM
4 | O=C(Cc1ccc(Cl)c(Cl)c1)N1CCc2cccc(Cl)c2C1CN1CCCC1 (stereo not drawn) [Example 27, 1-(pyrrolidin-1-yl)methyl-2-(3,4-dichlorophenyl)acetyl-8-chloro-1,2,3,4-tetrahydroisoquinoline hydrochloride 1/4hydrate] |  |  |  | 0.092 mg/kg | 5.46 nM | 369 nM
5 | C[C@H]1CN(C(=O)Cc2ccc(Cl)c(Cl)c2)[C@@H](CN2CCCC2)c2ccccc21 (relative stereo) [Example 4, 1-(pyrrolidin-1-yl)methyl-2-(3,4-dichlorophenyl)acetyl-4-methyl-1,2,3,4-tetrahydroisoquinoline hydrochloride. Diastereoisomer CIS] | 14 nM | 0.282 mg/kg | 1150 nM | 0.459 mg/kg |  | 
6 | CC1Cc2ccccc2C(CN2CCCC2)N1C(=O)Cc1ccc(Cl)c(Cl)c1 (single isomer, unassigned) [Example 42, (-)-1-(pyrrolidin-1-yl)methyl-2-(3,4-dichlorophenyl)acetyl-3-methyl-1,2,3,4-tetrahydroisoquinoline D(-) tartrate] | 2.23 nM | 0.01 mg/kg | 11.1 nM | 0.021 mg/kg |  | 
7 | O=C(Cc1ccc(Cl)c(Cl)c1)N1CCc2c(Cl)cccc2C1CN1CCCC1 (stereo not drawn) [Example 7, 1-(pyrrolidin-1-yl)methyl-2-(3,4-dichlorophenyl)acetyl-5-chloro-1,2,3,4-tetrahydroisoquinoline hydrochloride] |  |  |  | 0.836 mg/kg | 43.6 nM | 1580 nM
8 | C[C@@H]1Cc2ccccc2[C@H](CN2CCCC2)N1C(=O)Cc1ccc(Cl)c(Cl)c1 (relative stereo) [Example 1, 1-(pyrrolidin-1-yl)methyl-2-(3,4-dichlorophenyl)acetyl-3-methyl-1,2,3,4-tetrahydroisoquinoline hydrochloride 1/3 hydrate. Diastereoisomer CIS] | 2.65 nM | 0.021 mg/kg | 14.9 nM | 0.033 mg/kg |  | 
9 | O=C(Cc1ccc(Cl)c(Cl)c1)N1CCc2c(O)cccc2C1CN1CCCC1 (stereo not drawn) [Example 5, 1-(pyrrolidin-1-yl)methyl-2-(3,4-dichlorophenyl)acetyl-5-hydroxy-1,2,3,4-tetrahydroisoquinoline] | 0.423 nM | 0.005 mg/kg | 0.69 nM | 0.009 mg/kg |  | 

— US4954509A, “Isoquinoline derivatives and their use as analgesics” (Dr. Lo. Zambeletti S.p.A., priority 1988, dated 1990)
